Earlier results, collected in patent US20060120979A1, “Skin care composition comprising hydroquinone and a substantially anhydrous base” (priority 2004, published 2006).

solubility in alcohols (alcohols): freely soluble | solubility in water (water): less soluble
Structure (SMILES): Oc1ccc(O)cc1 [Hydroquinone]
